# Experiments:
# [1] = target: T1, recombinant human ALK5 (TGF-βR1) protein (Homo sapiens, UniProt P36897); test: Biochemical ALK5 (TGF-βR1) assay to measure pKi (LANCE Ultra ULight kinase assay); settings: apparent pKi, converted from pIC50 using the Cheng-Prusoff equation
# T1 construct: purchased Life Technologies PR9075A
# T1 sequence (P36897 34-503): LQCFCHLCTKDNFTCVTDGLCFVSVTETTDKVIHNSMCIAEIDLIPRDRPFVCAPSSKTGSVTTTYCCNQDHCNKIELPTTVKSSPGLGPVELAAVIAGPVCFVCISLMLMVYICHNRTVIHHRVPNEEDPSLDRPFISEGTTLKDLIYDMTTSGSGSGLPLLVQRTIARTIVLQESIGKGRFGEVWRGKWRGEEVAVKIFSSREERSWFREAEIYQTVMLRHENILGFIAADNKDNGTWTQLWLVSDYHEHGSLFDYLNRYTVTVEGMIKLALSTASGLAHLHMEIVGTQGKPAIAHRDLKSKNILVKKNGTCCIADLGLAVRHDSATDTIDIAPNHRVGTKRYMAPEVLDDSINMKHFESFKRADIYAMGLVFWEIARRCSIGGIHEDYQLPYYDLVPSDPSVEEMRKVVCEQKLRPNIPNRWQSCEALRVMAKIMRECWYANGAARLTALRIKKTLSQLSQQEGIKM
# Experimental: The assays were performed in a 384-well plate (24 columns×16 wells/rows). An Echo®550 Liquid Handler (Labcyte) was used to prepare various intermediate concentrations of the compound of Formula I in 100% DMSO. From the intermediate concentrations, a range of concentrations (from 10 μM to […] corresponding to volumes up to 105 nL) were prepared and ejected into a final assay plate to be used to create individual dose response curves. To a separate column within the assay plate, 105 nL of DMSO in each well was used to establish a maximum assay signal. […]
# Next, 2 μL of 125 μM ATP (5× final, 125 μM ATP prepared in assay buffer with 2 mM DTT) was added to the incubated mixtures, covered with a MicroClime® Environmental Lid (Product No. LLS-0310, Labcyte) and immediately transferred to 37° C. […] The plate was then read on a Perkin Elmer EnVision Plate Reader using europium specific reader settings with excitation and emission wavelengths set to 320 or 340 nm and 665 nm, respectively.
# For dose-response analyses, percent inhibition versus compound concentrations were plotted, and pIC50 values were determined from a 4-parameter robust fit model with GraphPad Prism V5 Software (GraphPad Software, Inc., La Jolla, Calif.). […] Results were expressed as pIC50 (negative logarithm of IC50) and subsequently converted to pKi (negative logarithm of dissociate constant, Ki) using the Cheng-Prusoff equation. […]
# [2] = test system: monocrotaline (MCT) model of severe pulmonary hypertension; test: Efficacy study in monocrotaline model of severe pulmonary hypertension; type: in vivo, Sprague-Dawley rats; settings: MCT 60 mg/kg s.c.; oral aspiration, 2-weeks of treatment
# Experimental: Male Sprague-Dawley rats are tagged, weighed, and randomly divided into control and MCT-treated groups. The rats in the MCT-treated group are administered a single dose of MCT (60 mg/kg, s.c.), then treated with either (1) vehicle control; (2) sildenafil (30 mg/kg, p.o., b.i.d.); or (3) the compound of Formula I at an appropriate amount and frequency (formulated in 3% glycerol in PBS; pH=4) via oral aspiration.
# Following 2-weeks of treatment, the animals are anesthetized with ketamine/xylazine for terminal monitoring of pulmonary and systemic arterial pressures along with heart rate. The lungs of each animal are then harvested for histologic analysis.
# [3] = test system: DSS-induced intestinal fibrosis; test: Efficacy study in murine DSS-induced intestinal fibrosis model; type: in vivo, C57BL/6J mice; settings: oral gavage following the second of the 3 cycles of DSS; sacrifice at 6, 9 or 12 weeks
# Experimental: The compound of Formula I is expected to slow, halt or reverse the progression of intestinal fibrosis in a murine colitis model. Six to 8-week old male C57BL/6J mice are tagged and weighed. The drinking water of the animals is treated with 2.5% dextran sulfate sodium (DSS) for 7 days to induce acute colitis, followed by 2 days of normal drinking water. Three, 3-week cycles of 2.5% DSS treatment (1 week of 2.5% DSS in water; 2 weeks of normal water) are then completed to induce intestinal fibrosis. Following the second of the 3 cycles of DSS administration, mice are treated with either vehicle control or the compound of Formula I at an appropriate amount and frequency via oral gavage (e.g., once daily). Animals are sacrificed at either 6, 9 or 12 weeks after the first DSS cycle, then distal, mid and proximal sections of the colon harvested for histologic analysis, RNA extraction and cytokine measurement.
compound,measurement,setting,value
"C[C@@H]1CN(CCNc2cnc3ccc(-c4nc[nH]c4-c4cc(Cl)ccc4F)nc3c2)C[C@H](C)N1 [compound of Formula I, 6-(5-(5-chloro-2-fluorophenyl)-1H-imidazol-4-yl)-N-(2-((3S,5R)-3,5-dimethylpiperazin-1-yl)ethyl)-1,5-naphthyridin-3-amine]",Ki,[1],0.0398 to 0.316 nM
same,progression of pulmonary hypertension,[2],"slow, halt or reverse the progression of pulmonary hypertension"
same,intestinal fibrosis,[3],"slow, halt or reverse intestinal fibrosis"

# From patent US20210387983A1, “CRYSTALLINE ALK5 INHIBITORS AND USES THEREOF” (THERAVANCE BIOPHARMA R&D IP, LLC, priority 2020, published 2021)
